# Target: T1, LTA4H (Homo sapiens, UniProt P09960)
# T1 sequence (P09960 1-611): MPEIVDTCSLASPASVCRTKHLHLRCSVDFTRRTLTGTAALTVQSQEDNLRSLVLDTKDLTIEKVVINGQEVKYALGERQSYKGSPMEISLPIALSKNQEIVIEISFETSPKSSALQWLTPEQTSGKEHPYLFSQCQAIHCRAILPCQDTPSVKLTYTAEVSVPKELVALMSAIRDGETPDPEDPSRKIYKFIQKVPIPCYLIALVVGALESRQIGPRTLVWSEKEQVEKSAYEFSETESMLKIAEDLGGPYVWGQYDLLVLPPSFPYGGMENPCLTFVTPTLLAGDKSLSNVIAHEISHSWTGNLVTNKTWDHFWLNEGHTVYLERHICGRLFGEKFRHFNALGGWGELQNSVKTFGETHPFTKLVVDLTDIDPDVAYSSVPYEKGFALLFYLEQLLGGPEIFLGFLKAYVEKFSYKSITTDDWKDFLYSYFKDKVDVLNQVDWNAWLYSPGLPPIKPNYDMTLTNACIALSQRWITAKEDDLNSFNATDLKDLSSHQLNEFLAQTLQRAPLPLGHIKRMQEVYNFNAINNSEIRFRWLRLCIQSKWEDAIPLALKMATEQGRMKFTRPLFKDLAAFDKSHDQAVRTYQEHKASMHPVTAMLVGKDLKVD
# Assay: In vitro inhibition of epoxide hydrolase enzymatic activity of LTA4H (LTB4 production)
# Assay type: biochemical
compound,measurement,value
"O=C(O)c1ccc(CN2C[C@@H]3C[C@H]2CN3Cc2ccc(Oc3ccc(-c4ncco4)cc3)cc2)cc1 [acebilustat, 4-{[(1 S,4S)-5-({4-[4-oxazol-2-yl-phenoxy]phenyl}methyl)-2,5-diazabicyclo[2.2.1]heptan-2-yl]methyl}benzoic acid]",IC50,13.1 nM
